From a melting point compilation (Tetko et al.; mined from patent text by program, amines drawn as free bases though some values may be those of a salt)

| melting point | Compound |
| --- | --- |
| 237 to 239 °C | CC(=O)OCC(COC(C)=O)OCn1cnc2c(=O)[nH]c(N)nc21 |
| 69 °C | COC(=O)C1=CC(=O)CCC1c1cccs1 (racemic) |
| 229 to 230 °C | N#Cc1ccc(N(Cc2ccccc2)n2cnnc2)cc1-c1ccc(O)cc1 |
| 180 °C | CCCCCC1(c2ccc(C)cc2)OCc2c(O)c(C)nc(Cl)c21 (configuration not stated) |
| > 270 °C | O=c1[nH]c2cc(Sc3cccc4cnccc34)c([N+](=O)[O-])cc2s1 |
| 45 °C | CC(CF)(CF)C(=O)C=Cc1ccccc1 |
| 244 to 245 °C | NS(=O)(=O)c1ccc(-n2cnc3c(-c4ccc(C(F)(F)F)cc4F)ncnc32)cc1 |
| 48 to 51 °C | O=C1C2C=CCCC2C(=O)N1CCO (configuration not stated) |
| 103 to 107 °C | CON(C)C(=O)c1cc2c(Sc3ccc(C)cc3)cncc2s1 |
| 87 to 88 °C | COc1cccc(CC(=O)O)c1OCCCc1cn(-c2ccc(Cl)cn2)nc1C(C)(C)C |
| 165 to 167 °C | CCOCc1nc2c(N)nc3cc(N4CCCC4=O)ccc3c2n1CCCOC(C)C |
| 132 to 134 °C | OCCCC1=NN(c2nc3ccccc3s2)C(O)(c2ccc(Cl)cc2)C1 (configuration not stated) |
| 166 to 169 °C | Oc1ccccc1-c1ccc2nonc2c1 |
| 298 to 300 °C | CN(C)C=Cc1[nH]c(=O)ccc1C#N |
| 180 to 181 °C | CC(C)(C)OC(=O)NC1CCCC2(CCCC2)NC1=O (configuration not stated) |
| 164 to 166 °C | Oc1ccc(-c2nc(Cn3ccnn3)cs2)cc1 |
| 143 to 146 °C | CC(CCC(N)=S)N1C(=O)c2ccccc2C1=O (configuration not stated) |
| > 250 °C | O=c1[nH]c2ccccc2c(O)c1-c1csc(-c2ccncc2)n1 |
| 224 to 227 °C | CN(C)c1ccc(/C=C/c2cc(/C=C/c3ccc4cc[nH]c4c3)[nH]n2)cc1 |
| 153 to 156 °C | O=C(NNS(=O)(=O)c1ccccc1)c1ccnc2ccccc12 |
| 131 to 136 °C | CCC(=CC(CNC(=O)c1cccnc1Cl)=NO)C(C)[N+](=O)[O-] (configuration not stated) |

| melting point | Compound |
| --- | --- |
| 45 to 52 °C | CN1C(C)(C)CC(OC(=O)CCc2cc(-n3nc4ccc(S(=O)(=O)c5ccccc5)cc4n3)c(O)c(C(C)(C)C)c2)CC1(C)C |
| 79 to 81 °C | O=C(NCc1noc(-c2ccc(CN3CCCCCC3)s2)n1)c1ccccc1 |
| 117 °C | CCCN(CCC(O)c1csc2ccc(F)cc12)C1COc2c(F)ccc(C(N)=O)c2C1 (configuration not stated) |
| 298 to 299 °C | O=c1c2c(Cc3ccccc3)n[nH]c2c2cccnc2n1-c1cccc(F)c1 |
| 111 to 112 °C | COc1ccc(CCN)cc1OCCC(c1ccccc1)(c1ccccc1)c1ccccc1 |
| 144 to 146 °C | N=C(NC(=O)Nc1ccccc1[N+](=O)[O-])c1ccccc1 |
| 282 to 283 °C | Nc1c(C(=O)c2ccccc2)cnc2[nH]ncc12 |
| 144 °C | N#Cc1ccc(-c2cnc(Cl)o2)cc1 |
| 121 °C | CNC(=O)n1sc(OC2CCCCC2)nc1=O |
| 186 to 190 °C | CC1(C)[C@H](CN2CCCCS2(=O)=O)CC[C@]1(C)NCC(=O)N1C[C@@H](F)C[C@H]1C#N |
| 101 to 104 °C | CC(C)Nc1nc2ccccn2c(=O)c1Br |
| 156 to 157 °C | N#CCCNC(=O)c1cccc(-c2ccc3c(n2)N(Cc2ccc(Cl)cc2Cl)CC3)c1 |
| 155 to 157 °C | COc1ccc(C(=O)COc2ccc3oc(C(=O)c4ccc(OC)cc4)c(C)c3c2)cc1 |
| 230 to 233 °C | CCCNCC1CCN(c2nc3c(cc2F)c(=O)c(C(=O)O)cn3C2CC2)C1 (configuration not stated) |
| 224 to 226 °C | COc1ccc(-c2cncc(C#N)c2N(C)c2ccc3[nH]ccc3c2)cc1OC |
| 152 to 153 °C | CC(C)C(O)c1cccc(S(N)(=O)=O)c1 (configuration not stated) |
| 185 to 187 °C | Cc1ncc(CSC(=O)c2cccc(C(=O)SCc3cnc(C)c(O)c3CO)c2)c(CO)c1O |
| 142 to 143 °C | COCc1cc(-n2nc(C(F)(F)F)cc2-c2ccc(-c3ccco3)cc2)ccc1S(C)(=O)=O |
| 84 to 85 °C | COc1cc2c(cn1)OCC21C(=O)N(CC2CCOCC2)c2ccccc21 (configuration not stated) |
| > 220 °C | Brc1ccc(Nc2ncc(-c3ccccc3)s2)nc1 |

Continued, compound first:

| Compound | melting point |
| --- | --- |
| COCC(F)(F)c1nc2nc(C)c(F)cc2cc1C(=O)C1C(=O)C2CCC(C2)C1=O (configuration not stated) | 177 to 180 °C |
| Clc1ccc(O[C@@H]2CCNC[C@H]2c2ccccc2)cc1 (relative stereo) | 102 to 103 °C |
| Cc1oc2ccc(-n3nnc4cccnc43)cc2c1C | 152 to 153 °C |
| BrCc1nc2cc3ccccc3cc2nc1CBr | 190 to 191 °C |
| Cc1cc(C2(C(F)(F)F)CC(c3ccc(F)cc3)=NO2)ccc1N (configuration not stated) | 108 to 110 °C |
| Cc1cc(=S)c2c(O)cc(OC(C)C)cc2o1 | 119 to 120 °C |
| COCCCn1c(C(N)=O)cc2c3c(c(-c4ccccc4Cl)cc21)C(=O)NC3=O | 260 to 261 °C |
| NCC(O)C1COc2ccccc2O1 (configuration not stated) | 86 to 88 °C |
| CCOCN1C(C)=C(C(=O)OCC)C(c2cccc([N+](=O)[O-])c2)C(C(=O)OCC)=C1C | 125 °C |
| CNC(=O)C=C(c1ccc(C#N)cc1)n1ccnc1 | 172 to 180 °C |
| CNC(=O)C(=NOCF)c1ccccc1COc1ccccc1C | 86 to 88 °C |
| CC(C)C(N)C(=O)NC(Cc1ccccc1)C(O)C(O)C(Cc1ccccc1)NC(=O)C(N)C(C)C (configuration not stated) | 205 to 207 °C |
| N#Cc1ccc(CCl)cn1 | 45 to 47 °C |
| O=C(CN1C(=O)C2(COc3ccc(-c4cccnc4)cc32)c2ccccc21)Nc1ccccc1F (configuration not stated) | 98 to 100 °C |
| N#Cc1ccc(SC2SCC(O)C(O)C2O)cc1 (configuration not stated) | 175 °C |
| CCS(=O)(=O)CCc1ccc(C(=O)c2ccc(Cl)cc2)cc1 | 117 to 118 °C |
| CCCc1c(OCCCOc2ccc(CC(=O)O)cc2Br)ccc(C(C)=O)c1O | 111 to 112 °C |
| CCOC(=O)C(C)(C)c1ccc2c(c1)Nc1ccccc1S2 | 96 to 99 °C |
| c1cc(NC2CC2)ccn1 | 111 to 112 °C |
| Cc1ccc(-c2ccnc3c(C(=O)c4cccs4)cnn23)cc1NC(=O)OC(C)C | 198 to 200 °C |
| Cc1c[nH]c(=O)c2ccccc12 | 175 to 176 °C |

| Compound | melting point |
| --- | --- |
| ONC(=S)C=Cc1cccc2ccccc12 | 129 to 130 °C |
| CC(C)(C)OC(=O)N(CCCc1ccc(Cl)cc1)C1CCCC1N (configuration not stated) | 95.3 to 111 °C |
| CC12CC(c3ccc(C=O)cc3)C3=C4CCC(=O)C=C4CCC3C1CCC2O (configuration not stated) | 197 to 200 °C |
| O=C(O)CCc1c(Cl)cccc1-c1cccs1 | 83 to 86 °C |
| COc1ccc(Cc2cnc(NCCSCc3csc(CN(C)C)n3)[nH]c2=O)cn1 | 137 to 138 °C |
| CCCC(=O)NCC1Cc2ccc(-c3ccc(=O)[nH]n3)cc2C1 (configuration not stated) | 204 to 205 °C |
| Cc1c(C(=O)Nc2ccc(N3CCC(N4CCOCC4)CC3)c(C(F)(F)F)c2)cnn1-c1ccc(Cl)cc1 | 193 to 194 °C |
| Oc1ccc(OCc2ccccc2)c(F)c1 | 80 to 82 °C |
| Cn1c(C(F)(F)F)ccc(-c2cc(C#N)c(Cl)cc2F)c1=O | 180 to 181 °C |
| CC(C)(C)COc1ccc(N)cc1Br | 45 °C |
| N#CCCn1c(C(=O)OCc2ccccc2)cc2ccccc21 | 98 to 100 °C |
| CC(=O)NCC(=O)NS(=O)(=O)c1ccc(-c2c(-c3ccccc3)noc2C)cc1 | 218 to 219 °C |
| COC(=O)C(=O)c1ccc(OCCOc2ccc(S(N)(=O)=O)cc2)cc1 | 136 to 137 °C |
| Cc1cccc2c1nc(-c1ccccc1Cl)n2CC(C)O (configuration not stated) | 164 to 165 °C |
| N#Cc1ccc(-c2ccc(-c3ccc(C#N)cn3)s2)cc1 | 316 to 318 °C |
| COc1ccc(N(C(=O)CN2C(=O)C(Cc3n[nH]c4ccccc34)(OC)C(=O)N(c3cccnc3)c3ccccc32)C(C)C)cc1 (configuration not stated) | 207 to 209 °C |
| CC(NC(=O)OC(C)(C)C)C(=O)Nc1cc(CO)cc(Nc2c3ccccc3nc3ccccc23)c1 (configuration not stated) | 131 to 133 °C |
| CC(C)(C)c1nc2cc(N3CCCC3)c(NC(N)=S)cc2s1 | 221 °C |
| Cc1nc(C(=O)NCCO[N+](=O)[O-])co1 | 106 to 108 °C |
| OCCCc1cnoc1-c1ccc2c(c1)OCO2 | 45 to 46 °C |
| O=C(NCc1ccc(Cl)cc1)n1cc(Br)cnc1=O | 158 to 160 °C |

| Compound | melting point |
| --- | --- |
| C=C(C)Cn1c(S)nc2c(cnn2C)c1=O | 158 to 160 °C |
| CC1(C)CN(c2c(C#N)cnn2-c2ccc(Cl)c(Cl)c2Cl)C1=O | 147 to 149 °C |
| COC(=O)N(c1ccccn1)C(C(=O)NC(Cc1ccccc1)C(O)CN1C2CCC(C2)N1C(=O)OC(C)(C)C)C(C)C (mixture of isomers) | 73 to 77 °C |
| CC(=O)c1cc([N+](=O)[O-])c2c(c1)C(C)(C)CCO2 | 117 to 119 °C |
| COc1ccc2cc(C(=O)c3ccc(C)c(C)c3)oc2c1 | 95 to 97 °C |
| CCOC(=O)Cc1cc(C)c(C(=O)c2ccc(C)cc2)n1C | 90 to 93 °C |
| Cc1c(NC(=O)C(CSC(=O)C(C)C)Cc2ccccc2)cccc1C(=O)O (configuration not stated) | 178 to 183 °C |
| O=C(NCc1ccccc1)NC(Cc1ccccc1)C(=O)O (configuration not stated) | 115 to 117 °C |
| CCOc1cc2c(Nc3ccc(OC)cc3)c(C#N)cnc2nc1C | 190 to 192 °C |
| COC(=O)c1nc(-c2ccc(Cl)cc2F)cc(N)c1OC | 139 to 144 °C |
| COc1ccccc1C(=O)Nc1nc2c(s1)CN(C)CC2 | 164 to 166 °C |
| CON=C(C)c1ccc(C(=O)Nc2ccc(C(C)(C)C)cc2)cc1 | 154 to 155 °C |
| Cc1cc(-c2ccccc2)nn1C(C)C(=O)N(C)C (configuration not stated) | 98 to 99 °C |
| COC(=O)C(C)Oc1cccc(C=Cc2ccc3ccc(Br)cc3n2)c1 (configuration not stated) | 101 to 102 °C |
| CC(C)(C)c1ccc(NC(=O)c2ccc(C3NOC(=O)N3)cc2)cc1 (configuration not stated) | > 300 °C |
| Nc1ccc(CCN2CCN(c3ccc(N)cc3Cl)CC2)cc1 | 109 to 112 °C |
| O=S1CCN(c2nc(N3CCOCC3)nc(-n3c(C(F)F)nc4ccccc43)n2)CC1 | 225 to 226 °C |
| CCCc1nccn1NCc1cc(C(C)(C)C)c(O)c(C(C)(C)C)c1 | 122 to 123 °C |
| O=C(O)Cc1ccc(Oc2ccc(I)cc2)cc1 | 148 to 150 °C |
